From patent publication US20220033397A1, “PHARMACEUTICAL COMPOUNDS AND THEIR USE AS INHIBITORS OF UBIQUITIN SPECIFIC PROTEASE 19 (USP19)” (ALMAC DISCOVERY LIMITED, priority 2018, published 2022)

What follows are molecules tested against T1, Full-length USP19 (Homo sapiens, UniProt O94966) (assay: USP19 fluorescence polarisation (FP) homogeneous assay with Ubiquitin-Lys-TAMRA substrate). Settings: 2.5 nM USP19, 30 min pre-incubation, average of at least two duplicate experiments.
T1 construct: Full-length USP19 was purchased from Boston Biochem (E-576); purchased Boston Biochem E-576
T1 sequence (O94966 1-1318): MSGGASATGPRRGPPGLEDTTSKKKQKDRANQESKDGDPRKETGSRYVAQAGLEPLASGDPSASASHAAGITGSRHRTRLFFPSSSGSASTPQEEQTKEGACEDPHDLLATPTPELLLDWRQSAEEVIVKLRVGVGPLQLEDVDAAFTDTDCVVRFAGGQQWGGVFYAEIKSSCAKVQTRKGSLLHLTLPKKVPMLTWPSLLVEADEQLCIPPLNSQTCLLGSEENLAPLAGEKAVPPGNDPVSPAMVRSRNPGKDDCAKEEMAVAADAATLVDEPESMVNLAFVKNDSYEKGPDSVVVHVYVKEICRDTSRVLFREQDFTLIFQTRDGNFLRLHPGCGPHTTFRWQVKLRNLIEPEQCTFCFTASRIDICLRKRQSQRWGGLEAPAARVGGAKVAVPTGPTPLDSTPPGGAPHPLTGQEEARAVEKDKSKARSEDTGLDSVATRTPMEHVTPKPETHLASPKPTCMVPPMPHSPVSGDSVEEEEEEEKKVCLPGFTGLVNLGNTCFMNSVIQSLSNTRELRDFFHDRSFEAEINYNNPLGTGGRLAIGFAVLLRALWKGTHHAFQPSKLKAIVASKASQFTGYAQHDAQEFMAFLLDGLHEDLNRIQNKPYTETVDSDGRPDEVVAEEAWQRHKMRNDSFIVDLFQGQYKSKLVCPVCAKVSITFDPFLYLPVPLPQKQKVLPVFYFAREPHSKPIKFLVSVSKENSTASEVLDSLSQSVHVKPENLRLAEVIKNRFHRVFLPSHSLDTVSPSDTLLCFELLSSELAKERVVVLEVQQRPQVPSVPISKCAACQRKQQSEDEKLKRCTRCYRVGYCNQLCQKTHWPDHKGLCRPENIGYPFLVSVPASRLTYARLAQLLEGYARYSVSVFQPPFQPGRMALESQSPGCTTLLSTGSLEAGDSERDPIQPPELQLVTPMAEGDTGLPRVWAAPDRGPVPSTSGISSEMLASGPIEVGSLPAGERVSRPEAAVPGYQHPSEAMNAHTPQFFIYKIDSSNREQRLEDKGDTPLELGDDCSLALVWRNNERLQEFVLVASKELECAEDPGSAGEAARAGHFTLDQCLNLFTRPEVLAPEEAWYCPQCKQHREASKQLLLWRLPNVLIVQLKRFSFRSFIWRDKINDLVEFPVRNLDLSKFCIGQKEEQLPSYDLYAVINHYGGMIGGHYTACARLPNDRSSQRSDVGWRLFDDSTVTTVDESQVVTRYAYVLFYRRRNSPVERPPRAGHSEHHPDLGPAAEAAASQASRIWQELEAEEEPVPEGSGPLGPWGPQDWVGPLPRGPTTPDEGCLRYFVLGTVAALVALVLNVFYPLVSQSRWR
Type: biochemical
Summary of the method: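 Full-length USP19 preincubated 30 min at RT with inhibitor (200 μM to 2 μM series, 8–18 points) before adding 500 nM Ubiquitin-Lys-TAMRA substrate.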

How did the IC50 turn out when `O=C(N1CC[C@@](O)(Cn2cnc(-c3ccccc3)cc2=O)C2(CCCC2)C1)N1CCS(=O)(=O)CC1c1ccccc1` (stereo partly drawn) [Example 335, (S)-3-((7-(1,1-Dioxido-3-phenylthiomorpholine-4-carbonyl)-10-hydroxy-7-azaspiro[4.5]decan-10-yl)methyl)-6-phenylpyrimidin-4(3H)-one] was run?
The IC50 was < 0.5 µM.

Which IC50 does the source give for `N[C@@H]1CCN(C(=O)N2CC[C@@](O)(Cn3cnc(-c4ccccc4)cc3=O)C3(CCCC3)C2)[C@H](c2ccccc2)C1` [Example 397, 3-(((S)-7-((2S,4R)-4-Amino-2-phenyl-piperidine-1-carbo-nyl)-10-hydroxy-7-azaspiro[4.5]decan-10-yl)methyl)-6-phenylpyrimidin-4(3H)-one] here?
Its IC50 is < 0.5 µM.

For `CN(C)C(=O)c1cn(CC2(O)CCN(C(=O)N(C)CC3CCCCC3)CC23CCCC3)c(=O)cc1-c1ccccc1` (centres unmarked) [Example 82, N-(Cyclohexylmethyl)-10-((5-(dimethylcarbamoyl)-2-oxo-4-phenylpyridin-1(2H)-yl)methyl)-10-hydroxy-N-methyl-7-azaspiro[4.5]decane-7-carboxamide], which IC50 is on record?
The IC50 was < 0.5 µM.

With `CC1(C)CCC(N2CCN(CC3(O)CCN(C(=O)NCc4ccccc4)CC34CCCC4)C(=O)C2)CC1` (centres unmarked) [Example 115, N-Benzyl-10-((4-(4,4-dimethylcyclohexyl)-2-oxopiperazin-1-yl)methyl)-10-hydroxy-7-azaspiro[4.5]decane-7-carboxamide] as the molecule, how does the IC50 read?
The IC50 was 0.5 to 5 µM.

How did the IC50 turn out when `CC1(C)CN(C(=O)CCC2CCCCC2)CCC1(O)CN1CC(Cc2ccccc2)CC1=O` (centres unmarked) [Example 45, 4-Benzyl-1-((1-(3-cyclohexylpropanoyl)-4-hydroxy-3,3-dimethylpiperidin-4-yl)methyl)pyrrolidin-2-one] was run?
Its IC50 is 50 to 250 µM.

How did the IC50 turn out when `C[C@H](CC1CCCCC1)C(=O)N1CCC(O)(Cn2cc(S(C)(=N)=O)c(-c3ccccc3)cc2=O)C(C)(C)C1` (stereo partly drawn) [Example 68, 1-((1-((R)-3-Cyclohexyl-2-methylpropanoyl)-4-hydroxy-3,3-dimethylpiperidin-4-yl)methyl)-5-(S-methylsulfonimidoyl)-4-phenylpyridin-2(1H)-one] was run?
Its IC50 is 0.5 to 5 µM.

How did the IC50 turn out when `CN(C)C(=O)C1CN(C[C@@]2(O)CCN(C(=O)[C@H](CO)CC3CCCCC3)CC2(C)C)C(=O)CC1c1ccccc1` (stereo partly drawn) [Example 25, 1-(((R)-1-((S)-3-Cyclohexyl-2-(hydroxymethyl)propanoyl)-4-hydroxy-3,3-dimethylpiperidin-4-yl)methyl)-N,N-dimethyl-6-oxo-4-phenylpiperidine-3-carboxamide] was run?
Its IC50 is 5 to 50 µM.

With `C[C@H](CC1CCCCC1)C(=O)N1CCC(O)(CN2CC(CO)CC2=O)C2(CCCC2)C1` (stereo partly drawn) [Example 34, 1-((7-((R)-3-Cyclohexyl-2-methylpropanoyl)-10-hydroxy-7-azaspiro[4.5]decan-10-yl)methyl)-4-(hydroxymethyl)pyrrolidin-2-one] as the molecule, how does the IC50 read?
The IC50 was 5 to 50 µM.

For `O=C(N1CC[C@@](O)(Cn2cnc(Cl)cc2=O)C2(CCCC2)C1)N1CCOC[C@H]1c1ccccc1` [Example 220, 6-Chloro-3-(((S)-10-hydroxy-7-((R)-3-phenylmorpholine-4-carbonyl)-7-azaspiro[4.5]decan-10-yl)methyl)pyrimidin-4(3H)-one], which IC50 is on record?
Its IC50 is < 0.5 µM.

How did the IC50 turn out when `Cn1nccc1-c1cc(=O)n(CC2(O)CCN(C(=O)NCc3ccccc3)CC23CCCC3)cn1` (centres unmarked) [Example 205, N-Benzyl-10-hydroxy-10-((4-(1-methyl-1H-pyrazol-5-yl)-6-oxopyrimidin-1(6H)-yl)methyl)-7-azaspiro[4.5]decane-7-carboxamide] was run?
The IC50 was 0.5 to 5 µM.

Which IC50 does the source give for `CC(C)C1CNCCN1C(=O)N1CCC(O)(Cn2cnc(-c3ccccc3)cc2=O)C2(CCCC2)C1` (centres unmarked) [Example 208, 3-((10-Hydroxy-7-(2-isopropylpiperazine-1-carbonyl)-7-azaspiro[4.5]decan-10-yl)methyl)-6-phenylpyrimidin-4(3H)-one] here?
The IC50 was 50 to 250 µM.

`O=C(N1CC[C@@](O)(Cn2cnc(N3CCC(F)(F)CC3)cc2=O)C2(CCCC2)C1)N1CCNC[C@H]1c1ccccc1` [Example 351, 6-(4,4-Difluoro-piperidin-1-yl)-3-(((S)-10-hydroxy-7-((R)-2-phenylpiperazine-1-carbonyl)-7-aza-spiro[4.5]decan-10-yl)methyl)pyrimidin-4(3H)-one] was tested. Which IC50 did it give?
Its IC50 is < 0.5 µM.

`C[C@H](CC1CCCCC1)C(=O)N1CCC(O)(Cn2ccc3ccc(F)cc3c2=O)C2(CCCC2)C1` (stereo partly drawn) [Example 121, 2-((7-((R)-3-Cyclohexyl-2-methylpropanoyl)-10-hydroxy-7-azaspiro[4.5]decan-10-yl)methyl)-7-fluoroisoquinolin-1(2H)-one] was tested. Which IC50 did it give?
The IC50 was 0.5 to 5 µM.

`O=C(N1CC[C@@](O)(Cn2cnc(-c3ccccc3)cc2=O)C2(CCCC2)C1)N1CCNC[C@H]1c1ccccc1` [Example 278, 3-(((S)-10-Hydroxy-7-((R)-2-phenylpiperazine-1-carbonyl)-7-azaspiro[4.5]decan-10-yl)methyl)-6-phenylpyrimidin-4(3H)-one] was tested. Which IC50 did it give?
The IC50 was < 0.5 µM.

With `C[C@H](CC1CCCCC1)C(=O)N1CCC(O)(Cn2ccc3occc3c2=O)C2(CCCC2)C1` (stereo partly drawn) [Example 138, 5-((7-((R)-3-Cyclohexyl-2-methylpropanoyl)-10-hydroxy-7-azaspiro[4.5]decan-10-yl)methyl)furo[3,2-c]pyridin-4(5H)-one] as the molecule, how does the IC50 read?
The IC50 was 5 to 50 µM.

With `O=C1CN(c2ccccc2)CCN1CC1(O)CCN(C(=O)NCc2ccccc2)CC12CCCC2` (centres unmarked) [Example 109, N-Benzyl-10-hydroxy-10-((2-oxo-4-phenylpiperazin-1-yl)methyl)-7-azaspiro[4.5]decane-7-carboxamide] as the molecule, how does the IC50 read?
The IC50 was < 0.5 µM.

How did the IC50 turn out when `O=C(N1CCC(O)(Cn2ccc(-c3ccccc3)cc2=O)C2(CCCC2)C1)N1CCNCC1c1cc(F)ccc1F` [Example 374, 1-(((S)-7-((R)-2-(2,5-Difluorophenyl)piper-azine-1-carbonyl)-10-hydroxy-7-azaspiro[4.5]decan-10-yl)methyl)-4-phenylpyridin-2(1H)-one] was run?
The IC50 was < 0.5 µM.

With `C[C@H](CC1CCCCC1)C(=O)N1CCC(O)(Cn2cc(-c3ccccc3)c(N=S(C)(C)=O)cc2=O)C2(CCCC2)C1` (stereo partly drawn) [Example 73, 1-((7-((R)-3-Cyclohexyl-2-methylpropanoyl)-10-hydroxy-7-azaspiro[4.5]decan-10-yl)methyl)-4-((dimethyl(oxo)-λ^6-sulfaneylidene)amino)-5-phenylpyridin-2(1H)-one] as the molecule, how does the IC50 read?
The IC50 was 0.5 to 5 µM.

`O=C(NCc1ccccc1)N1CCC(O)(Cn2cnc(-c3ccccc3F)cc2=O)C2(CC2)C1` (centres unmarked) [Example 194, N-Benzyl-8-((4-(2-fluorophenyl)-6-oxopyrimidin-1(6H)-yl)methyl)-8-hydroxy-5-azaspiro[2.5]octane-5-carboxamide] was tested. Which IC50 did it give?
The IC50 was 50 to 250 µM.

How did the IC50 turn out when `COc1ccccc1-c1cc(=O)n(C[C@]2(O)CCN(C(=O)N3CCNC[C@H]3c3cccc(F)c3)CC23CCCC3)cn1` [Example 356, 3-(((S)-7-((R)-2-(3-Fluorophenyl)pipera-zine-1-carbonyl)-10-hydroxy-7-azaspiro[4.5]decan-10-yl)methyl)-6-(2-methoxyphenyl)pyri-midin-4(3H)-one] was run?
Its IC50 is < 0.5 µM.

For `C[S+]([O-])c1cn(CC2(O)CCN(C(=O)N3CCNC[C@H]3c3ccccc3)CC23CCCC3)c(=O)cc1-c1ccccc1` (stereo partly drawn) [Example 187, 1-((10-Hydroxy-7-((R)-2-phenylpiperazine-1-carbonyl)-7-azaspiro[4.5]decan-10-yl)methyl)-5-(methylsulfinyl)-4-phenylpyridin-2(1H)-one], which IC50 is on record?
Its IC50 is < 0.5 µM.

`CN(C)C(=O)c1cn(CC2(O)CCN(C(=O)N(C)C3CCCCC3)CC23CCCC3)c(=O)cc1-c1ccccc1` (centres unmarked) [Example 89, N-Cyclohexyl-10-((5-(dimethylcarbamoyl)-2-oxo-4-phenylpyridin-1(2H)-yl)methyl)-10-hydroxy-N-methyl-7-azaspiro[4.5]decane-7-carboxamide] was tested. Which IC50 did it give?
The IC50 was 5 to 50 µM.

`C[C@H](CC1CCCCC1)C(=O)N1CCC(O)(Cn2cc(Cl)ncc2=O)C2(CCCC2)C1` (stereo partly drawn) [Example 6, 5-Chloro-1-((7-((R)-3-cyclohexyl-2-methylpropanoyl)-10-hydroxy-7-azaspiro[4.5]decan-10-yl)methyl)pyrazin-2(1H)-one] was tested. Which IC50 did it give?
The IC50 was < 0.5 µM.
